{"source": "patent US9649394B2", "about": "“Compositions and methods for in vivo imaging” (The General Hospital Corporation, priority 2010, dated 2017)", "key": {"A2780 tumors": {"system": "A2780 tumors", "experiment": "Non-invasive monitoring of treatment response in tumor-bearing Nu/Nu mice (SUV)", "assay_type": "in vivo", "details": "treatment with Olaparib", "method": "^18F-AZD2281 was synthesized as described herein. Nu/Nu mice bearing either A2780 tumors (treatment response) or A2780, Paca2, Panc1 and SKOV3 (differential uptake) were injected with the hot probe (500-750 μCi) and imaged ˜1.5 hours thereafter. Treatment consisted of injection of 0.5-1.0 mg AZD2281 (Olaparib) 18 hours before imaging (ip, interperitoneal) or ˜1.5-3.5 hours before imaging (iv, intravenous). Uptake was determined non-invasively by drawing SUVs (Standard Uptake Values)."}, "MDA-MB-436 tumors": {"system": "MDA-MB-436 tumors", "experiment": "PET-CT imaging of MDA-MB-436 tumor-bearing mice, with and without AZD2281", "assay_type": "in vivo", "details": "1 mg AZD2281 BID, then re-injection of probe", "method": "Non-tumor bearing Nu/Nu mice were injected with (6^18F) and used for organ distribution immediately after injection over a time period of 2 hours. Tumor-bearing mice received s.c. injections with 5×10^6 MDA-MB-436 cells (American Type Culture Collection) in Matrigel (BD Biosciences) into each flank and underwent imaging 7 days later (injection of (6^18F) and immediate imaging over a time period of 2 hours). All mice were anesthetized (isoflurane 1.5%; O2 2 L/min) during imaging with a gas delivery system integrated into a multimodal imaging cartridge. All animal experiments were approved by Massachusetts General Hospital's Institutional Review Committee.\nImages were acquired on the Siemens Inveon PET-CT. Each PET acquisition was 120 minutes in duration. PET was reconstructed from 600 million coincidental 511 keV photon counts on a series of LSO (lutetium oxyorthosilicate) scintillating crystals. Counts were rebinned in 3D by registering photons spanning no more than 3 consecutive rings and reconstructed into sinograms using a high resolution Fourier Rebin algorithm. Sinograms also yielded a 3D mapping of positron signal using a 2D filtered back-projection algorithm and a Ramp filter with a Nyquist cut-off of 0.5. […] Data are expressed as standard uptake values (SUV), which normalizes activity measurements to body weight and injected activity. […]"}, "MDA-MB-436 cells": {"system": "MDA-MB-436 cells", "experiment": "AZD2281-TCO / Texas Red-Tz bioorthogonal reaction and imaging in live MDA-MB-436 cells", "assay_type": "cell-based", "details": "sequential AZD2281-TCO (7)/Texas Red-Tz (8)", "method": "(§1) Cells were then incubated with Texas Red-Tz (8) (25 μL, 20 μM) for 20 minutes (37° C.) before the medium was removed and cells were washed (1×, medium, 500 μL). […] Cells were washed with PBS (3×500 μL), fixed with paraformaldehyde (4% in PBS) and washed with PBS (3×500 μL, time between each wash=5 minutes). PBS was removed and cells mounted using Prolong Gold (Invitrogen, Carlsbad, Calif.) before imaging.\nas §1, with “min). […]” for “minutes). PBS was removed and cells mounted using Prolong Gold (Invitrogen, Carlsbad, Calif.) before imaging.”\nCells were observed on a Nikon 80i (Nikon, Tokyo JP) microscope equipped with an ImagEM camera (Hammamatsu Photonics, Tokyo JP). […] For each image, both cell structures and nuclei structures have been obtained using the appropriate fluorescence filters and appropriate excitation signal levels to avoid collecting auto-fluorescence. […] Within each image and for each cell, the fluorescence signal for the total cell and the signal in the nuclear area was calculated using the corresponding mask as a spatial filter. […] The ratio of the fluorescent signal in the cytosol region over the signal in the nuclear region was then calculated. […]"}, "[1]": {"system": "HT-1080 cells expressing H2B-apple", "experiment": "Intravital imaging, window chamber mice with HT-1080 H2B-apple cells", "assay_type": "in vivo", "method": "For the in vivo studies, mice with window chambers were implanted with 1 million HT-1080 cells expressing H2B-apple fluorescence protein. 75 nmol of AZD2281-BODIPYFL were dissolved in 75 μL of 1:1:DMAC:solutol and 75 μL of PBS and injected via tail vein. Images of the vessels were taken using a 20× water immersion objective on a laser scanning confocal microscope while the mouse was anesthetized with isoflurane."}, "HT1080 cells": {"system": "HT1080 cells", "experiment": "Life cell imaging, in vitro uptake and clearance kinetics", "assay_type": "cell-based", "method": "For in vitro kinetic studies, HT1080 cells were labeled with a 1 μM concentration of AZD2281 fluorophore conjugate in cell culture medium and imaged on an inverted Deltavision epifluorescence microscope using a 37° C. heated stage and 5% CO2 atmosphere for various times. After subtracting the background fluorescence, the data were fitted to an exponential association curve. […] Cells were washed twice in cell culture media and imaged continuously (BODIPYFL conjugate) or after various time points (BODIPY578 and BODIPY650). The loss in fluorescence was fitted to a biexponential decay curve."}, "PARP1/PARP2": {"system": "PARP1/PARP2", "experiment": "Comparison of AZD2281-BODIPY FL uptake and PARP1/PARP2 expression in cell lines", "assay_type": "cell-based", "details": "fixed cells, 20 minutes incubation", "method": "RAW 264.7, Panc-1, MIA Paca2, A2780, OVCAR429, UCI 101, UCI 107, SKOV-3, OVCAR-3, and OV-90 cells (200 μL, 35,000 cells/mL) were each seeded in their respective growth medium on 96-well plates and allowed to attach for 48 hours. […] Cells were then fixed with paraformaldehyde (4% in PBS) and washed with ice cold PBS/0.1% Triton X-100/0.5% bovine serum albumin (3×200 μL, 3rd wash left for 30 min). Cells were incubated with anti-PARP-1/2 Rab (1:50; SCBT, Santa Cruz, Calif.) at 4° C. overnight. Cells were washed with PBS/0.1% Triton X-100 (3×200 μL) before stained with secondary IgG-Cy5 Gab (1:100; Millipore, Billerica, Mass.) for 3 h at 4° C. Cells were then washed with PBS (1×, 200 μL), stained with Hoechst (Invitrogen, Carlsbad, Calif.) and blue whole cell stain (Thermo Scientific, Waltham, Mass.) for 30 minutes at room temperature, and washed with PBS (3×, 200 μL) before imaging and quantification of the respective fluorescence signals."}, "[2]": {"system": "SKOV-3, MIA Paca2, A2780, Panc-1 tumors", "experiment": "Tumor versus muscle fluorescence uptake in Nu/Nu mice, excised tissues", "assay_type": "in vivo", "details": "75 nmol via tail vein, 45 minutes", "method": "For ^18F-AZD2281 standardized uptake values, five Nu/Nu mice each received four subcutaneous injections containing SKOV-3, MIA Paca2, A2780, or Panc-1 cells in the flanks and shoulders (2.5×10^6 cells in 100 μL 70:30 PBS/BD matrigel per injection) (BD Biosciences, Bedford, Mass.). Tumors were allowed to grow for two weeks before imaging. 75 nmol of AZD2281-BODIPYFL were dissolved in 75 μL of 1:1:DMAC:solutol and 75 μL of PBS and injected via tail vein. The agent was allowed to circulate and clear for 45 minutes, before the mice were sacrificed, tumors and muscle tissue excised and the relative fluorescence uptake of tissues quantified against mice which were injected with just 1:1:DMAC:solutol."}, "PARP1": {"biological_target": "T1, PARP1 (Homo sapiens, UniProt P09874)", "T1 construct": "purchased Trevigen, Gaithersburg, Md", "T1 sequence (P09874 whole entry)": "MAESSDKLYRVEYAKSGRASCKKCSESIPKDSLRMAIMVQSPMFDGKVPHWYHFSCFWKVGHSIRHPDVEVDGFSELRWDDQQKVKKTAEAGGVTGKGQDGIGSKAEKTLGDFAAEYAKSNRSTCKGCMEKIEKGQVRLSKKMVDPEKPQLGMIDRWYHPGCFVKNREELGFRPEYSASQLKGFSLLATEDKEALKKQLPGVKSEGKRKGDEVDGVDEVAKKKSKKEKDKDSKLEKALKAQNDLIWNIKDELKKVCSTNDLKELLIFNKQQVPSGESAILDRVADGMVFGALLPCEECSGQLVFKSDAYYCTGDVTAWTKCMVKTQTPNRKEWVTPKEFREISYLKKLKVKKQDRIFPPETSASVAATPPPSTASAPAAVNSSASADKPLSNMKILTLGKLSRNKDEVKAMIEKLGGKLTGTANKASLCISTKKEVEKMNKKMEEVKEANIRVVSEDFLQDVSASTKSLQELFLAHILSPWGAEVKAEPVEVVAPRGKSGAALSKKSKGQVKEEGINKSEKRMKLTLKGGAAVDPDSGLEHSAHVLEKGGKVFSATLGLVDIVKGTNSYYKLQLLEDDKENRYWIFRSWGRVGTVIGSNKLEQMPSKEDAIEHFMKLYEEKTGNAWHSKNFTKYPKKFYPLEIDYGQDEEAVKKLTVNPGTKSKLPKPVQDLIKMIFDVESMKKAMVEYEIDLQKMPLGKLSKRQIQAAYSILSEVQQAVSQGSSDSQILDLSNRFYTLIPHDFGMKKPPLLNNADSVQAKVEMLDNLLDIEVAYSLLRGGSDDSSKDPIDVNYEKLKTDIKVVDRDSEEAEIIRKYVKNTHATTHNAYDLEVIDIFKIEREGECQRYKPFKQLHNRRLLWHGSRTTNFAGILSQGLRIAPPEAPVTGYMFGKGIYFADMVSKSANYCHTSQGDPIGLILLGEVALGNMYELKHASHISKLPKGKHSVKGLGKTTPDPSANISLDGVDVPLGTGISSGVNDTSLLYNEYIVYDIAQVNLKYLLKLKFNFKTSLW", "experiment": "Colorimetric PARP1 activity assay (Trevigen), IC50 determination", "assay_type": "biochemical", "method": "A commercially available colorimetric assay (Trevigen, Gaithersburg, Md.) was used to measure PARP activity in vitro in the presence of inhibitors. […] All experiments were carried out in triplicate. […] All reaction mixtures were adjusted to a final volume of 50 μL and a maximum final concentration 0.4% DMSO in assay buffer. The remainder of the assay was performed according to the manufacturer's instructions. PARP activity was measured by absorbance at 450 nm in each well using a Safire 2 microplate reader (Tecan Group, Männedorf, Switzerland). IC50 values were calculated using Prism software (GraphPad, La Jolla, Calif.).\nA commercially available colorimetric assay (Trevigen, Gaithersburg, Md.) was used to measure PARP activity in vitro in the presence of inhibitors. […] All experiments were carried out in triplicate. […] All reaction mixtures were adjusted to a final volume of 50 μL and a maximum final concentration 0.4% DMSO in assay buffer. The remainder of the assay was performed according to the manufacturer's instructions. PARP activity was measured by absorbance at 450 nm in each well using a Safire2 microplate reader. IC50 values were calculated using the Prism software package."}, "[3]": {"details": "1 μM, HT1080, exponential association fit"}, "[4]": {"details": "labeled at 1 μM for 1 hour, washed, biexponential decay fit"}}, "note": "Like-named read-outs stand apart in the source and are kept apart here."}
{"smiles": "OC[C@H]1O[C@@H](O)[C@H]([18F])[C@@H](O)[C@@H]1O", "note": "[FDG]", "values": [{"measurement": "ability to distinguish between treated and untreated tumors (tumor/muscle signal intensity)", "setting": "A2780 tumors", "result": "not able"}]}
{"smiles": "O=C(c1cc(Cc2n[nH]c(=O)c3ccccc23)ccc1F)N1CCN(C(=O)C2CC2)CC1", "note": "[AZD2281]", "values": [{"measurement": "effect on uptake of 18F-AZD2281 into tumors", "setting": "MDA-MB-436 tumors", "result": "inhibition of the probe s uptake into the tumors"}]}
{"smiles": "O=C(CCCC(=O)N1CCN(C(=O)c2cc(Cc3n[nH]c(=O)c4ccccc34)ccc2F)CC1)NCCNC(=O)OC1CC/C=C/CCC1", "note": "(stereo not shown) [AZD2281-TCO]", "values": [{"measurement": "spatial correlation of Texas Red staining with anti-PARP1 Mab staining", "setting": "MDA-MB-436 cells", "result": "excellent spatial correlation"}]}
{"smiles": "Cc1cc(C)n2c1C=C1C=CC(CCC(=O)N3CCN(C(=O)c4cc(Cc5n[nH]c(=O)c6ccccc56)ccc4F)CC3)=[N+]1[B-]2(F)F", "note": "[AZD2281-BODIPY FL]", "values": [{"measurement": "time after which non-specific uptake cleared, revealing nuclear uptake", "setting": "[1]; 75 nmol via tail vein", "result": 1, "unit": "h"}, {"measurement": "distribution in tumor after iv injection", "setting": "[1]; first in vascular system, then tumor cells", "result": "concentrates in each and every tumor cell of the tumor"}, {"measurement": "Uptake, Nucleus", "setting": "HT1080 cells; [3]", "result": "Nucleus = 1.1 min"}, {"measurement": "Uptake, Perinuclear", "setting": "HT1080 cells; [3]", "result": "Perinuclear = 1.2 min"}, {"measurement": "Clearance (weighted), Nucleus", "setting": "HT1080 cells; [4]", "result": "Nucleus = slow"}, {"measurement": "Clearance (weighted), Perinuclear", "setting": "HT1080 cells; [4]", "result": "Perinuclear = 1.7 min"}, {"measurement": "cellular localization", "setting": "PARP1/PARP2", "result": "localizes with the nucleus"}, {"measurement": "uptake in muscle compared to tumor tissues", "setting": "[2]", "result": "very little of the compound gets taken up by muscle cells compared to the tumor tissues"}]}
{"smiles": "O=C(CCCC(=O)N1CCN(C(=O)c2cc(Cc3n[nH]c(=O)c4ccccc34)ccc2F)CC1)NCCNC(=O)C1C[C@@H]2C=C[C@H]1C2", "note": "(stereo partly shown) [AZD2281-NOB]", "values": [{"measurement": "IC50", "setting": "PARP1; Example 1, 0.5 units PARP HSA, 10 minutes, read-out: IC50", "result": "10.1 ± 1.3", "unit": "nM"}]}
{"smiles": "O=C(CF)N1CCN(C(=O)c2cc(Cc3n[nH]c(=O)c4ccccc34)ccc2F)CC1", "note": "[17^19F]", "values": [{"measurement": "IC50", "setting": "PARP1", "result": "5.2 ± 1.1", "unit": "nM"}]}
